Format in all cases: physicochemical
Series [1] in a line: Dynamic moisture absorption/desorption test. The following applies: 25° C., humidity 5% RH to 95% RH and back to 5% RH. The method, then:
In the test, VTI-SA+(TA Instruments) was used. About 10 mg of crystal I was weighed, and put into a pan. The temperature was elevated at a rate of 1 degree per minute to 60° C. while observing the weight variation per 5 minutes of 0.0100% or less. When the weight varied, this temperature was maintained for a maximum of 5 hours, followed by starting the next step. Thereafter, the temperature was cooled to 25° C., and the humidity was increased from 5% RH to 95% RH, and then decreased to 5% RH. Here, the humidity was increased in increments of 5% RH while observing the weight variation per 5 minutes of 0.00100% or less. When the weight varied, this humidity was maintained for a maximum of 2 hours, followed by starting the next step.

The nature of series [2]: Solid stability test (storage stability; XRPD, HPLC related substances, appearance). The following applies: for Related substances: HPLC. How it is done:
The storage stability of Crystal I obtained in Example above was examined under the following conditions. • Storage conditions: 40° C./[…] (open system and closed system), 60° C. (closed system), light shielding • Measurement point: 1 month • Storage amount: about 50 mg • Storage container: Brown glass bottle
X-ray powder diffraction measurement of the sample after storage was performed by the above-described method. For a change in mass of related substances (amount of detected substances other than Compound (I)), about 1 mg of the sample was weighed, and dissolved in about 5 mL of a water/acetonitrile mixed liquid (1:1), and 5 μL of the liquid was accurately measured and taken, and analyzed by HPLC in accordance with the following method. • Column: InertSustain C18 HP, 4.6×150 mm, 3 μm • Column temperature: 40° C. • Column flow rate: 0.8 mL/min • Mobile phase: A: 10 mM phosphate buffer (pH 6.8)/acetonitrile (17:3) and B: acetonitrile/methanol (17:3) • Detection UV: 220 nm • Gradient: […]

Series [3] is described as follows: Thermal stability test (X-ray powder diffraction under heating). The following applies: XRPD at 25° C., 50° C., elevated to 200° C., then lowered to 25° C. How it is done:
A thermal stability test was conducted on Crystal I and Crystal III obtained in Example and Comparative Example described above. Crystal II was not reproduced, and it was not possible to conduct a thermal stability test.
X-ray powder diffraction measurement was performed at 25° C., and the temperature was elevated to 50° C. over 30 minutes, followed by performing X-ray powder diffraction measurement. The temperature was further elevated to 200° C. at 10° C./10 min, followed by performing X-ray powder diffraction measurement, then the temperature was lowered to 25° C. over 30 minutes, followed by performing X-ray powder diffraction measurement.

The mark [4] stands for this setting: 40° C./75% RH (closed system), 1 month.
Setting [5] is: 40° C./75% RH (open system), 1 month.
Where [6] appears, read: 60° C. (closed system), 1 month.
The mark [7] stands for this setting: Light shielding (1,200,000 lx · hr).

Bounds are passed on as bounds.

Turning to `C=CC(=O)N1CCC[C@@H](n2nc(C(=O)Nc3ccc(CC(=O)N(C)C)c(C)c3C)c3c(N)ncnc32)C1` [Crystal I, (R)-1-(1-acryloylpiperidin-3-yl)-4-amino-N-(4-(2-(dimethylamino)-2-oxoethyl)-2,3-dimethylphenyl)-1H-pyrazolo[3,4-d]pyrimidine-3-carboxamide], the “hygroscopicity (moisture absorption/desorption isothermal line)” value in series [1] was “non-hygroscopic”. The Appearance result in series [2] (setting [4]), in series [2] (setting [5]), in series [2] (setting [6]) and in series [2] (setting [7]) was “No change” each time. Further, the Related substances in series [2] (setting [4]), in series [2] (setting [5]), in series [2] (setting [6]) and in series [2] (setting [7]) was below 0.1% in each case. For the same compound, the “change in X-ray powder diffraction pattern after storage” value in series [2] (storage 1 month, 40° C./75° RH (open and closed system), 60° C. (closed system), light shielding) is “no change in X-ray powder diffraction pattern”. Further, in series [3], the “change in crystal form under heating” value was “no change in crystal form”.

`C=CC(=O)N1CCC[C@@H](n2nc(C(=O)Nc3ccc(CC(=O)N(C)C)c(C)c3C)c3c(N)ncnc32)C1` [Crystal III, (R)-1-(1-acryloylpiperidin-3-yl)-4-amino-N-(4-(2-(dimethylamino)-2-oxoethyl)-2,3-dimethylphenyl)-1H-pyrazolo[3,4-d]pyrimidine-3-carboxamide]: the “change in crystal form under heating” value in series [3] is given as “changed by heating”.
